According to US20090123447A1, “COMPOSITIONS AND METHODS TO INHIBIT RNA VIRAL REPRODUCTION” (priority 2007, published 2009):

How the values were obtained:
[1] = system: SgJFH1-Luc RNA (subgenomic JFH1 replicon); assay: SgJFH1-Luc RNA replication in Huh7 cells, luciferase assay; assay type: cell-based, hepatitis C virus; settings: Huh7 cells transfected with SgJFH1-Luc RNA
Protocol: (§1) For viral RNA transfection, JFH1, JFH1/GND, and pSGR-JFH1-Luc were linearized with XbaI and used to synthesize the corresponding positive-sense stranded HCV RNA, as previously described (68). Then, 5×10^6 Huh7 cells were rinsed with Opti-Mem (Invitrogen), mixed briefly with 10-20 μg of the in vitro transcribed RNA in 0.4 ml of Opti-Mem, and then electroporated at 260 volts and 950 μF. […] Medium was changed daily. For infection with HCV, medium collected from JFH1 RNA-transfected cells were cleared of cell debris, as described, and added to naïve Huh7 cells. Typically, 1:2 or 3:2 ratio of the virus-containing medium and fresh cell culture medium were used.
SgJFH1-Luc RNA replication was also monitored by firefly luciferase reporter assay, using a kit from Promega.
To investigate whether the HCV RNA replication is modulated by ROS, Huh7 cells were transfected with the SgJFH1-Luc RNA and treated with GO plus glucose.
After 24 and 48 hours, respectively, the cells were collected in PBS, centrifuged, lysed in the reporter lysis buffer (Promega), and analyzed for luciferase activity.

JFH1 HCV (genotype 2a) = assay type: cell-based, hepatitis C virus; settings: JFH1-transfected cells, 20 uM
Protocol: as §1
JFH1/GND was used as the negative control. When L-buthionine S,R-sulfoximine (BSO) was used, the cells were pretreated with BSO for 16-24 hrs prior to the initiation of treatments.
Intracellular JFH1 HCV RNA content was also analyzed by qRT-PCR (Taqman), using ABI7300 real time PCR system and one step RT-PCR kit from Applied Biosystems. The forward primer was 5′-[…]-3′ (nt. 146 to 164) and the reverse primer, 5′-[…]-3′ (nt. 277 to 295). The probe was 5′[…]3′ (nt. 168 to 188) and was fluorogenically labeled with FAM (5′) and TAMRA (3′) (Biosearch Technologies, Novato, Calif.). Briefly, the reactions were carried out at 48° C. for 30 min for reverse transcription, followed by denaturation at 95° C. for 10 min, and then 50 cycles of 15 sec denaturation at 95° C. plus 60 sec of annealing and extension at 60° C. All samples were analyzed in duplicates or triplicates. In vitro RNA transcripts were used to generate standard curve to determine RNA copy numbers. The level of 18S rRNA was also analyzed, using manufacturer-optimized protocol, as the control.
To analyze the amount of the extracellular HCV RNA, medium from the cells were cleared by low-speed centrifugation and then, treated with RNaseA at room temperature. Then, the RNA samples were extracted, using Trizol LS Reagent (Invitrogen), and analyzed for HCV RNA content by qRT-PCR.

GSH [2] = assay: Intracellular GSH content in Huh7 cells (unpublished observation); assay type: cell-based, human; settings: twenty to 100 μM BSO
[3] = system: intracellular calcium concentration ([Ca^2+]i); assay: [Ca^2+]i measurement with Indo-1 AM in SgPC2 cells; assay type: cell-based, human; settings: BSO-treated cells, after 24 h
Protocol: Briefly, on the day of the experiment, cells were washed in Krebs-Ringer phosphate buffer (KRPH; pH 7.4, containing 1.0 mM MgSO4, 1.3 mM CaCl2, 10 mM Hepes, 5 mM glucose, 125 mM NaCl, 5 mM KCl, and 10 mM sodium phosphate) and subsequently loaded with 10-20 μM Indo-1 AM (70 μl/coverslip; Molecular Probes, Inc., Eugene, Oreg., USA) containing 10 μM probenecid (Molecular Probes) for 30 min at 37° C. The attached cells were washed and bathed in KRPH/probenecid at 4° C. or room temperature until further analysis. Then, coverslips were individually submerged into KRPH and preequilibrated inside the […] fluorimeter (Hitachi) in darkness for 3 min, and [Ca^2+]i was monitored continuously at 37° C., with excitation at […] and emission at 400 and 450 nm. H2O2 and other agents were injected at different time points, as indicated under Results. [Ca^2+]i was calculated as described. Rmax was determined by adding 8-16 μM digitonin and Rmin with 10 mM ethylene glycol-bis(β-aminoethyl)-N,N,N'-tetraacetic acid (EGTA). […] The baseline, which represented unstimulated cells scanned over time, was plotted along with other measurements or subtracted from the other plots. Cells were serum-depleted, 1 day before the experiment, by incubating them overnight in DMEM plus 0.5% FBS. […] Then, CaCl2 was added before determining the Rmax for each run.

GSH [4] = assay: Intracellular glutathione (GSH) in SgPC2 cells, GSH recycling assay; assay type: cell-based, human; settings: 20-40 μM BSO, 24 h
Protocol: Intracellular GSH concentration was determined using a GSH recycling assay [35] and expressed as nmol/mg protein. ATP level was measured using the Somatic Cell ATP assay kit from Sigma-Aldrich, as previously described [32]. Protein level was determined with a bicinchoninic acid kit (Pierce Biotechnology, Inc., Rockford, Ill., USA).

JFH1-transfected cells = assay: ATP concentration as cytotoxicity measure in JFH1-transfected cells
Protocol: Determination of ATP concentrations—ATP level was measured, using Somatic Cell ATP Assay kit from Sigma-Aldrich, as previously described (68). Protein level was determined with bicinchoninic acid kit (Pierce Biotechnology, Inc., Rockford, Ill.).
ATP concentration was measured to determine if the treatments were cytotoxic to the cells.

[5] = system: subgenomic HCV replicon of genotype 1b; assay: microbe, parasite or virus in culture; assay type: cell-based, hepatitis C virus; settings: SgPC2 cells, Northern blot
Protocol: Huh7 human hepatoma cells were cultured in Dulbecco's modified Eagle medium (DMEM; Invitrogen, Carlsbad, Calif., USA) supplemented with 10% fetal bovine serum (FBS; Invitrogen), 100 units/ml of penicillin, and 100 μg/ml of streptomycin in a 5% CO2 incubator. SgPC2 cells are G418-selected, pooled Huh7 cell clones that support the continuous replication of a subgenomic HCV replicon of genotype 1b and [29] (GenBank Accession No. AJ242652) that carries a S11791 adaptive mutation within the NS5A region. SgPC2 cells were maintained in the above medium supplemented with 0.5 mg/ml G418 (Invitrogen). G418 was removed at least 1 day before cell treatments.

CCCCS(=N)(=O)CCC(N)C(=O)O (stereo not shown) [BSO, 1-buthionine S,R-sulfoximine, reference compound]
HCV RNA level by luciferase activity [1]: further suppressed HCV RNA
intracellular HCV RNA level (JFH1 HCV (genotype 2a)): significant suppression
decrease of intracellular GSH content (GSH [2]): about 60%
intracellular calcium concentration [3]: 60.6 ± 4.3 nM
decrease of total intracellular GSH concentration (GSH [4]): about 75%
cytotoxicity (ATP concentration, cell survivability) (JFH1-transfected cells): did not cause any loss in cell survivability
effect on HCV RNA level / replication [5]: sufficient to decrease the HCV RNA level
